This passage reports TGI results from PubChem BioAssay (NCI).

Experiment in all cases: NCI-60 cell line screen, 48 h
Assay [1] concerns 786-0 renal.
For assay [2], the system named is HCT-15 colon.
Assay [3] has as its system M14 melanoma.
The test system of assay [4] is MDA-N.
Assay [5] relates to NCI/ADR-RES ovarian.
Assay [6] deals with OVCAR-5 ovarian.
Assay [7] deals with RXF 393 renal.
Assay [8] concerns SK-MEL-5 melanoma.
For assay [9], the system named is SK-OV-3 ovarian.
In assay [10] the test system is TK-10 renal.
Assay [11] relates to UACC-257 melanoma.

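Cultured in 96-well plates, cells were exposed to test compound for 48 hours across five concentrations. TGI is the concentration that stops growth completely.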

As for `C=CCSC1=N/C(=C\c2ccc(C)cc2)C(=O)N1CC=C`, the TGI was 58.4 µM in assay [1]; over 100 µM in assay [2]; over 100 µM in assay [3]; 45.1 µM in [4]; over 100 µM in assay [5]; over 100 µM in assay [6]. The TGI in assay [7] is 43.2 µM; in assay [8], 27.3 µM; in assay [9], over 100 µM; in [10], over 100 µM; in assay [11], 59.8 µM.

As for `CCOC(=O)/C(C(=O)c1ccc[nH]1)=C1/CCCN1C`, the TGI in [1], in [2], in assay [3], in assay [4], in [5] and in assay [6] was over 100 µM in each case. Further, the TGI in assay [7], in [8], in assay [9], in assay [10] and in assay [11] was over 100 µM each time.

For the compound `O=C(OC1C#CCSCC#C/C=C\1)c1ccc2c(c1)C(=O)c1ccccc1C2=O` (centres undefined), the TGI in [2] is over 100 µM; in assay [3], over 100 µM; in assay [4], over 100 µM; in assay [5], over 100 µM; in [6], over 100 µM; in assay [7], 47.1 µM. In addition, the TGI was over 100 µM in [8], 70.6 µM in assay [9], 80.6 µM in assay [10] and over 100 µM in assay [11].

For the compound `O=C1c2cccc3cc([N+](=O)[O-])cc(c23)C(=O)N1c1ccc(OCCN2CCCC2)cc1`, the TGI is 33.4 µM in assay [1]; 44.5 µM in assay [2]; 47.1 µM in [3]; 80.3 µM in assay [4]; over 100 µM in assay [5]; 51.7 µM in assay [6]. Besides, the TGI in [7] was 37 µM; in [8] it was 30.1 µM; in [10], 81.3 µM; in assay [11], 36.1 µM.

Take `N#CCCN(C(=O)Nc1ccc(NC(=O)N(CCC#N)c2ccccc2)cc1)c1ccccc1`: the TGI in [1], in assay [2], in [3], in assay [4], in [5] and in [6] was over 100 µM in each case. Also, the TGI in assay [7], in assay [8] and in [9] was over 100 µM throughout.

On to `Cc1nc2nnc(CCCCCCCCc3nnc4nc(C)[nH]n34)n2[nH]1`, for which the TGI in assay [1], in [2], in assay [3], in assay [4], in [5] and in [6] was over 100 µM throughout. For the same compound, the TGI in [7], in assay [8], in assay [9], in [10] and in assay [11] was over 100 µM each time.

In the case of `O=C(O)COc1c(Cl)cc(Cl)c(C(c2c(Cl)cc(Cl)c(OCC(=O)O)c2Cl)C(Cl)(Cl)Cl)c1Cl`, the TGI was over 100 µM in assay [1]; 76 µM in assay [2]; 46.8 µM in assay [3]; over 100 µM in assay [4]; over 100 µM in [5]; 67.6 µM in assay [6]. The TGI in assay [7] worked out at 92.7 µM; in assay [8], 40.6 µM; in assay [9], 47.2 µM; in assay [10] it was 95.8 µM; in assay [11] it was 59.8 µM.

With `Cc1ccc(NC(c2ccccc2)P(=O)(c2ccccc2)c2ccccc2)cc1` (centres undefined), the TGI in assay [1], in assay [2], in [3], in assay [4], in assay [5] and in assay [6] was over 100 µM throughout. Also, the TGI in assay [7], in [8], in assay [9], in assay [10] and in [11] was over 100 µM each time.

For `CCc1nnc2sc(-c3ccc(-c4ccccc4[N+](=O)[O-])o3)nn12`, the TGI in [1] is over 100 µM; in assay [2], over 100 µM; in assay [3] it was over 100 µM; in assay [4], 46.1 µM; in assay [5], 75.1 µM; in [6], over 100 µM. Further, the TGI is over 100 µM in assay [7]; 65.9 µM in assay [8]; over 100 µM in [9]; over 100 µM in [10]; over 100 µM in assay [11].

In the case of `CC(=O)CC(O)(C(F)(F)Cl)C(F)(Cl)Cl` (centres undefined), the TGI in assay [1], in assay [2], in assay [3], in assay [4], in assay [5] and in assay [7] was over 10 µM in each case. Also, the TGI in assay [8], in [9], in assay [10] and in assay [11] was over 10 µM in each case.

`CCN(CC)C(=O)N[C@@H](CC(C)C)C(=O)NC`: the TGI in [1], in assay [2], in assay [3], in [4], in assay [5] and in [6] was over 100 µM in each case. Moreover, the TGI in assay [7], in assay [8] and in [9] was over 100 µM throughout.

Regarding `C#C[C@]1(O)CC[C@H]2[C@@H]3CCC4=C/C(=N/OC(=O)c5cccc6cc7ccccc7nc56)CC[C@@H]4[C@H]3CC[C@@]21CC`, the TGI in assay [1], in [2], in [3], in assay [4], in assay [5] and in [6] was over 100 µM in each case. For the same compound, the TGI in assay [7], in assay [8], in assay [9] and in [11] was over 100 µM throughout.

On to `COc1ccc(Cl)cc1NC(=O)O/N=C(\Cl)C(C)C`, for which the TGI in assay [1] came out at 27.1 µM; in assay [3], 13 µM; in [4], 26.2 µM; in assay [5], 16.6 µM; in [6] it was 34.2 µM; in [7], 17.4 µM. Also, the TGI in assay [8] was over 44.5 µM; in assay [9] it was 34.7 µM; in assay [10], 6.93 µM; in assay [11], 35.9 µM.
